Measured values taken from patent publication US20210024545A1, “SUBSTITUTED DIAZAHETERO-BICYCLIC COMPOUNDS AND THEIR USE” (Bayer Aktiengesellschaft, priority 2016, published 2021).

Assays:
human TASK-1 = human TASK-1 (Homo sapiens, UniProt O14649); assay: Inhibition of recombinant TASK-1 in stably transfected CHO cells, KCl-induced depolarization, voltage-sensitive dye (B-2); assay type: cell-based; design: expressed in transfected cells; host or cells: stably transfected CHO cells; conditions: depolarization induced by 40 mM potassium chloride, some mean values from multiple determinations
Sequence of human TASK-1 (O14649 whole entry): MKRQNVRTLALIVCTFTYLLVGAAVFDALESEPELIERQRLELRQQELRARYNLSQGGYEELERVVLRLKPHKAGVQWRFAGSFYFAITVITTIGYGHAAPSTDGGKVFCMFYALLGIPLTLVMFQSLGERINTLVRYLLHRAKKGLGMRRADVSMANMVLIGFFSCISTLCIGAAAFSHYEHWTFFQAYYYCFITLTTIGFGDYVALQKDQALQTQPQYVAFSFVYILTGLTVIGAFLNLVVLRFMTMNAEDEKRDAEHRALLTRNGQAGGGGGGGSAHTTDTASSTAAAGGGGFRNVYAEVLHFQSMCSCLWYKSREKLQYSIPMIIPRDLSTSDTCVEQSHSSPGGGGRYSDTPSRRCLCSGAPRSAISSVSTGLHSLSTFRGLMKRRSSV
Method: (§1) B-2. Inhibition of Recombinant TASK-1 and TASK-3 In Vitro
(§2) The investigations on the inhibition of the recombinant TASK-1 and TASK-3 channels were conducted using stably transfected CHO cells. The compounds of the invention were tested here with administration of 40 mM of potassium chloride in the presence of a voltage-sensitive dye using the method described in detail in the following references [Whiteaker et al., Validation of FLIPR membrane potential dye for high-throughput screening of potassium channel modulators, J. Biomol. Screen. 6 (5), 305-312 (2001); Molecular Devices FLIPR Application Note: Measuring membrane potential using the FLIPR® membrane potential assay kit on Fluorometric Imaging Plate Reader (FLIPR®) systems, http://www.moleculardevices.com/reagents-supplies/assay-kits/ion-channels/flipr-membrane-potential-assay-kits]. The activity of the test substances was determined as their ability to inhibit a depolarization induced in the recombinant cells by 40 mM potassium chloride. The concentration which can block half of this depolarization is referred to as IC50).
(§3) Table 2 below lists the IC50 values from this assay determined for individual working examples of the invention (some as mean values from multiple independent individual determinations): […]

human TASK-3 = human TASK-3 (Homo sapiens, UniProt Q9NPC2); assay: Inhibition of recombinant TASK-3 in stably transfected CHO cells, KCl-induced depolarization, voltage-sensitive dye (B-2); assay type: cell-based; design: expressed in transfected cells; host or cells: stably transfected CHO cells; conditions: depolarization induced by 40 mM potassium chloride, some mean values from multiple determinations
Sequence of human TASK-3 (Q9NPC2 whole entry): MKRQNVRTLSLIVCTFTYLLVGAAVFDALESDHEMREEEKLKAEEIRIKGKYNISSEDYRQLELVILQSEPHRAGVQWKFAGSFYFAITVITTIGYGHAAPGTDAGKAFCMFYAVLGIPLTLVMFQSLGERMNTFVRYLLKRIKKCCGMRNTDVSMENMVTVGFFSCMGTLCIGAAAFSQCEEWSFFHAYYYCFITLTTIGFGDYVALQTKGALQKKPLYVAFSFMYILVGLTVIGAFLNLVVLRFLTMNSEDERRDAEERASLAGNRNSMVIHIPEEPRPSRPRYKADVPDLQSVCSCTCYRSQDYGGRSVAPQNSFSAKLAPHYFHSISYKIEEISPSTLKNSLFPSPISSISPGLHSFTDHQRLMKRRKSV
Method: as §1, §2, §3

`COc1cccc(C(=O)N2CC3CCC2CN3Cc2c(-c3ccc(Br)cc3)nc3ccccn23)n1` (racemic) [Example 151, (5-{[2-(4-Bromophenyl)imidazo[1,2-a]pyridin-3-yl]methyl}-2,5-diazabicyclo[2.2.2]oct-2-yl)(6-methoxypyridin-2-yl)methanone] was tested, and the IC50 (human TASK-1) was 72 nM and the IC50 (human TASK-3) was 1.8 nM.
In the case of `O=C(c1ccccc1F)N1CC2CCC1CN2Cc1c(-c2ccc(Br)cc2)nc2ccccn12` (racemic) [Example 152, (5-{[2-(4-Bromophenyl)imidazo[1,2-a]pyridin-3-yl]methyl}-2,5-diazabicyclo[2.2.2]oct-2-yl)(2-fluorophenyl)methanone], the IC50 (human TASK-1) is reported as 2900 nM and the IC50 (human TASK-3) is reported as 75 nM.
`COc1ccc(F)c(C(=O)N2CC3CCC2CN3Cc2c(-c3ccc(Br)cc3)nc3ccccn23)n1` (racemic) [Example 153, (5-{[2-(4-Bromophenyl)imidazo[1,2-a]pyridin-3-yl]methyl}-2,5-diazabicyclo[2.2.2]oct-2-yl)(3-fluoro-6-methoxypyridin-2-yl)methanone] showed an IC50 (human TASK-1) of 1000 nM and an IC50 (human TASK-3) of 34 nM.
For `COc1ccc(Cl)c(C(=O)N2CC3CCC2CN3Cc2c(-c3ccc(Br)cc3)nc3ccccn23)n1` (racemic) [Example 199, (5-{[2-(4-Bromophenyl)imidazo[1,2-a]pyridin-3-yl]methyl}-2,5-diazabicyclo[2.2.2]oct-2-yl)(3-chlor-6-methoxypyridin-2-yl)methanone(racemate)], the IC50 (human TASK-1) was 33 nM and the IC50 (human TASK-3) was 1.8 nM.
`CC(C)(C)OC(=O)N1CC2CCC1CN2Cc1c(-c2ccc(Cl)cc2)nc2ccccn12` (single isomer, unassigned) [Example 15, tert-Butyl 5-{[2-(4-chlorophenyl)imidazo[1,2-a]pyridin-3-yl]methyl}-2,5-diazabicyclo[2.2.2]octane-2-carboxylate] gave an IC50 (human TASK-1) of 397 nM and an IC50 (human TASK-3) of 82 nM.
With `CC(C)(C)OC(=O)N1CC2CCC1CN2Cc1c(-c2ccc(Cl)cc2)nc2ccccn12` (single isomer, unassigned) [Example 16, tert-Butyl 5-{[2-(4-chlorophenyl)imidazo[1,2-a]pyridin-3-yl]methyl}-2,5-diazabicyclo[2.2.2]octane-2-carboxylate] the IC50 (human TASK-1) was 1300 nM and the IC50 (human TASK-3) was 600 nM.
In the case of `O=C(c1ccccc1F)N1CC2CCC1CN2Cc1c(-c2ccc(Cl)cc2)nc2ccccn12` (single isomer, unassigned) [Example 35], the IC50 (human TASK-1) is reported as 350 nM and the IC50 (human TASK-3) is reported as 200 nM.
`O=C(c1ccccc1F)N1CC2CCC1CN2Cc1c(-c2ccc(Cl)cc2)nc2ccccn12` (single isomer, unassigned) [Example 36] gave an IC50 (human TASK-1) of 670 nM and an IC50 (human TASK-3) of 250 nM.
`O=C(C1CCCC1)N1CC2CCC1CN2Cc1c(-c2ccc(Cl)cc2)nc2ccccn12` (single isomer, unassigned) [Example 37] was tested, and the IC50 (human TASK-1) was 350 nM and the IC50 (human TASK-3) was 63 nM.
Compound `O=C(C1CCCC1)N1CC2CCC1CN2Cc1c(-c2ccc(Cl)cc2)nc2ccccn12` (single isomer, unassigned) [Example 38] has an IC50 (human TASK-1) of 790 nM and an IC50 (human TASK-3) of 380 nM.
Compound `COc1cccc(C(=O)N2CC3CCC2CN3Cc2c(-c3ccc(Cl)cc3)nc3ccccn23)c1` (single isomer, unassigned) [Example 39] has an IC50 (human TASK-1) of 640 nM and an IC50 (human TASK-3) of 370 nM.
`COc1cccc(C(=O)N2CC3CCC2CN3Cc2c(-c3ccc(Cl)cc3)nc3ccccn23)c1` (single isomer, unassigned) [Example 40] was tested, and the IC50 (human TASK-1) was 533 nM and the IC50 (human TASK-3) was 104 nM.
Work on `O=C(c1cc(F)ccc1Cl)N1CC2CCC1CN2Cc1c(-c2ccc(Cl)cc2)nc2ccccn12` (single isomer, unassigned) [Example 41] yielded an IC50 (human TASK-1) of 76 nM and an IC50 (human TASK-3) of 3.9 nM.
`O=C(C1CCCCC1)N1CC2CCC1CN2Cc1c(-c2ccc(Cl)cc2)nc2ccccn12` (single isomer, unassigned) [Example 42] showed an IC50 (human TASK-1) of 880 nM and an IC50 (human TASK-3) of 17 nM.
Compound `O=C(C1CCC1)N1CC2CCC1CN2Cc1c(-c2ccc(Cl)cc2)nc2ccccn12` (single isomer, unassigned) [Example 43] has an IC50 (human TASK-1) of 320 nM and an IC50 (human TASK-3) of 8.9 nM.
Work on `COc1ccccc1C(=O)N1CC2CCC1CN2Cc1c(-c2ccc(Cl)cc2)nc2ccccn12` (single isomer, unassigned) [Example 44] yielded an IC50 (human TASK-1) of 130 nM and an IC50 (human TASK-3) of 3.3 nM.
For `COc1ccc(F)cc1C(=O)N1CC2CCC1CN2Cc1c(-c2ccc(Cl)cc2)nc2ccccn12` (single isomer, unassigned) [Example 45], the IC50 (human TASK-1) was 340 nM and the IC50 (human TASK-3) was 13 nM.
For `Cc1ccccc1C(=O)N1CC2CCC1CN2Cc1c(-c2ccc(Cl)cc2)nc2ccccn12` (single isomer, unassigned) [Example 46], the IC50 (human TASK-1) was 73 nM and the IC50 (human TASK-3) was 5 nM.
For `Cc1ccc(F)cc1C(=O)N1CC2CCC1CN2Cc1c(-c2ccc(Cl)cc2)nc2ccccn12` (single isomer, unassigned) [Example 47], the IC50 (human TASK-1) was 70 nM and the IC50 (human TASK-3) was 15 nM.
In the case of `O=C(c1cccc(OC(F)(F)F)c1)N1CC2CCC1CN2Cc1c(-c2ccc(Cl)cc2)nc2ccccn12` (single isomer, unassigned) [Example 48], the IC50 (human TASK-1) is reported as 390 nM and the IC50 (human TASK-3) is reported as 17 nM.
`O=C(c1cccc(Cl)c1)N1CC2CCC1CN2Cc1c(-c2ccc(Cl)cc2)nc2ccccn12` (single isomer, unassigned) [Example 49] was tested, and the IC50 (human TASK-1) was 740 nM and the IC50 (human TASK-3) was 12 nM.
Compound `O=C(c1ccccn1)N1CC2CCC1CN2Cc1c(-c2ccc(Cl)cc2)nc2ccccn12` (single isomer, unassigned) [Example 51] has an IC50 (human TASK-1) of 290 nM and an IC50 (human TASK-3) of 34 nM.
With `Cn1ccnc1C(=O)N1CC2CCC1CN2Cc1c(-c2ccc(Cl)cc2)nc2ccccn12` (single isomer, unassigned) [Example 52] the IC50 (human TASK-1) was 170 nM and the IC50 (human TASK-3) was 10 nM.
Work on `Cc1cccc(C(=O)N2CC3CCC2CN3Cc2c(-c3ccc(Cl)cc3)nc3ccccn23)c1` (single isomer, unassigned) [Example 53] yielded an IC50 (human TASK-1) of 140 nM and an IC50 (human TASK-3) of 34 nM.
Compound `CCOc1cccc(C(=O)N2CC3CCC2CN3Cc2c(-c3ccc(Cl)cc3)nc3ccccn23)c1` (single isomer, unassigned) [Example 54] has an IC50 (human TASK-1) of 470 nM and an IC50 (human TASK-3) of 76 nM.
Compound `O=C(c1ccncc1)N1CC2CCC1CN2Cc1c(-c2ccc(Cl)cc2)nc2ccccn12` (single isomer, unassigned) [Example 55] has an IC50 (human TASK-1) of 2000 nM and an IC50 (human TASK-3) of 320 nM.
Compound `CC(C)c1ccc(-c2nc3ccccn3c2CN2CC3CCC2CN3C(=O)c2ccccc2F)cc1` (single isomer, unassigned) [Example 57] has an IC50 (human TASK-1) of 1400 nM and an IC50 (human TASK-3) of 240 nM.
Work on `COc1cccc(C(=O)N2CC3CCC2CN3Cc2c(-c3ccc(C(C)C)cc3)nc3ccccn23)n1` (single isomer, unassigned) [Example 60] yielded an IC50 (human TASK-3) of 610 nM.
For `COc1cccc(C(=O)N2CC3CCC2CN3Cc2c(-c3ccc(C(C)C)cc3)nc3ccccn23)n1` (single isomer, unassigned) [Example 61], the IC50 (human TASK-1) was 680 nM and the IC50 (human TASK-3) was 87 nM.
`CC(C)c1ccc(-c2nc3ccccn3c2CN2CC3CCC2CN3C(=O)C2CCCC2)cc1` (single isomer, unassigned) [Example 62] gave an IC50 (human TASK-1) of 2800 nM and an IC50 (human TASK-3) of 760 nM.
With `CC(C)c1ccc(-c2nc3ccccn3c2CN2CC3CCC2CN3C(=O)C2CCCC2)cc1` (single isomer, unassigned) [Example 63] the IC50 (human TASK-1) was 490 nM and the IC50 (human TASK-3) was 140 nM.
With `COc1ccc(F)c(C(=O)N2CC3CCC2CN3Cc2c(-c3ccc(Cl)cn3)nc3ccccn23)n1` (single isomer, unassigned) [Example 66] the IC50 (human TASK-1) was 1100 nM and the IC50 (human TASK-3) was 110 nM.
Compound `COc1ccc(Cl)c(C(=O)N2CC3CCC2CN3Cc2c(-c3ccc(Cl)cn3)nc3ccccn23)n1` (single isomer, unassigned) [Example 67] has an IC50 (human TASK-1) of 990 nM and an IC50 (human TASK-3) of 220 nM.
In the case of `COc1ccc(F)c(C(=O)N2CC3CCC2CN3Cc2c(-c3ccc(C(C)C)nc3)nc3ccccn23)n1` (single isomer, unassigned) [Example 127, (3-Fluoro-6-methoxypyridin-2-yl)(5-{[2-(6-isopropylpyridin-3-yl)imidazo[1,2-a]pyridin-3-yl]methyl}-2,5-diazabicyclo[2.2.2]oct-2-yl)methanone], the IC50 (human TASK-1) is reported as 9450 nM and the IC50 (human TASK-3) is reported as 670 nM.
Compound `COc1ccc(C)c(C(=O)N2CC3CCC2CN3Cc2c(-c3ccc(C(C)C)cc3)nc3ccccn23)n1` (single isomer, unassigned) [Example 137] has an IC50 (human TASK-1) of 190 nM and an IC50 (human TASK-3) of 14 nM.
Compound `COc1ccc(C)c(C(=O)N2CC3CCC2CN3Cc2c(-c3ccc(Cl)cc3)nc3ccccn23)n1` (single isomer, unassigned) [Example 138] has an IC50 (human TASK-1) of 75 nM and an IC50 (human TASK-3) of 6.8 nM.
Compound `COc1ccc(Cl)c(C(=O)N2C[C@@H]3CC[C@H]2CN3Cc2c(-c3ccc(Cl)cc3)nc3ccccn23)n1` (single isomer, unassigned; enantiomer 1) [Example 22] has an IC50 (human TASK-1) of 170 nM and an IC50 (human TASK-3) of 13 nM.
`Cc1cccc(Cl)c1NC(=O)N1C2CCC1CN(Cc1c(-c3ccc(Cl)cc3)nc3ccccn13)C2` [Example 165, N-(2-Chloro-6-methylphenyl)-3-{[2-(4-chlorophenyl)imidazo[1,2-a]pyridin-3-yl]methyl}-3,8-diazabicyclo[3.2.1]octane-8-carboxamide] gave an IC50 (human TASK-1) of 25 nM.
`CCOC(=O)N1C2CCC1CN(Cc1c(-c3ccc(Cl)cc3)nc3ccccn13)C2` [Example 185, Ethyl 3-{[2-(4-chlorophenyl)imidazo[1,2-a]pyridin-3-yl]methyl}-3,8-diazabicyclo[3.2.1]octane-8-carboxylate] was tested, and the IC50 (human TASK-1) was 120 nM.
